Data reported in patent US8975223B2, “Methods for treating metabolic disorders and obesity with a peptide comprising the amino acid sequence of SEQ ID No. 146” (Marcadia Biotech, Inc., priority 2010, dated 2015).
“Also recorded” adds a separate entry of the source. Where no end group is shown, it is not given here. [ ]: non-standard residue; d: D form. Aib = CC(C)(N)C(=O)O

Columns and labels:
Assay type in all cases: in vivo, human
[1] = Phase I single-ascending dose study, safety, tolerability, PK and PD, single SC injection; conditions: for mean daily fasting glucose level by day 7: healthy subjects (placebo 78.7)
Procedure: A Phase I, randomized, placebo-controlled, sequential, single-ascending, two period, study was performed in healthy male subjects to evaluate the safety, tolerability, pharmacokinetic (PK), and pharmacodynamic (PD) properties of extended half-life GLP-1/GIP coagonist peptide. Healthy adult male subjects (about 18 to 55 years of age) who were in general good health based on medical history, physical examination, ECG, and routine laboratory tests (e.g., blood, chemistry, hematology, urinalysis, and drug screen) with a body mass index between 20 kg/m^2 and 30 kg/m^2 were selected for the study. The extended half-life GLP-1/GIP coagonist peptide tested in all of the Examples was SEQ ID NO: 153.
The subjects were randomized into cohorts.
Following an overnight fast of at least 10 hours, the subjects received a single dose of the study drug or placebo as a subcutaneous (SC) injection in the abdomen. Blood samples were collected for fasting insulin, glucose, and glucagon levels pre-dose (i.e., within 30 minutes prior to dosing) on Day 1 and on Days 2, 3, 4, 5, 6, and 7. Plasma samples for pharmacokinetic analysis were collected pre-dose and at 0.5, 1, 2, 4, 8, and 12 hours post-dose on Day 1 and on Days 2, 3, 4, 5, 6, 7, 14, 28, and 35. The subjects were monitored through Day 35 for adverse events, weight, and vital signs.

[2] = test system: beta cell response to a glucose load; assay: Phase I two-part study, beta cell response to graded glucose infusion; conditions: for LS mean change in insulin secretion rate at each glucose infusion rate, placebo vs treatment: 72 hours after dosing, p<0.001
Procedure: (§1) A Phase I, randomized, placebo-controlled, positive-controlled two-part study was performed in healthy male and female subjects to evaluate the effect of a range of doses on beta cell response to a glucose load and to assess the effect of these doses on gastric emptying. Beta cell function was assessed by calculation of prehepatic insulin secretion in response to a graded glucose infusion. Gastric emptying was assessed by measurement of plasma appearance of ingested acetaminophen.
(§2) During Part 2, subjects in Cohort 2 received placebo on Day 1, followed by 8 mg of the extended half-life GLP-1/GIP coagonist peptide on Day 2. Subjects in Cohort 3 received placebo on Day 1, followed by 4 mg of the extended half-life GLP-1/GIP coagonist peptide on Day 2. Subjects in Cohort 4 received placebo on Day 1, followed by 16 mg of the extended half-life GLP-1/GIP coagonist peptide on Day 2.
(§3) Blood samples for glucose, C-peptide, insulin, and safety laboratory tests were drawn at −120, −15, and −10 minutes. At −10 minutes, subjects ingested 1000 mg acetaminophen elixir with 240 mL water. At 0 minutes, a step-wise infusion of glucose (20% dextrose) was started, a second SC injection of placebo was administered, and blood samples for glucose, C-peptide, insulin, and safety laboratory tests were drawn. Glucose was infused for a total of 2.5 hours at a rate of 2, 4, 6, 8, and 12 mg/kg/min. Each level of glucose infusion was maintained for 30 minutes. Blood samples for glucose, C-peptide, and insulin were drawn again at 10, 20, and 30 minutes during each 30-minute infusion period. Blood samples for plasma acetaminophen concentration were drawn at −10, 30, 60, 90, 120, 150, 180, 210, 240, 300, and 480 minutes.
(§4) Blood samples for glucose, C-peptide, and insulin were drawn at −120, −15, and −10 minutes. At −10 minutes, subjects ingested 1000 mg acetaminophen elixir with 240 mL water. […] Glucose was infused for a total of 2.5 hours at a rate of 2, 4, 6, 8, and 12 mg/kg/min. Each level of glucose infusion was maintained for 30 minutes. […] Blood samples for glucose, C-peptide, and insulin were drawn at 10, 20, and 30 minutes during each 30-minute infusion period. Blood samples for plasma acetaminophen concentration were drawn at −10, 30, 60, 90, 120, 150, 180, 210, 240, 300, and 480 minutes.
(§5) Blood samples for glucose, C-peptide, insulin, and safety laboratory tests were drawn at −15 and −10 minutes. At −10 minutes, subjects ingested 1000 mg acetaminophen elixir with 240 mL water. At 0 minutes, a step-wise infusion of glucose (20% dextrose) was started and blood samples for glucose, C-peptide, and insulin were drawn. Glucose was infused for a total of 2.5 hours at a rate of 2, 4, 6, 8, and 12 mg/kg/min. Each level of glucose infusion was maintained for 30 minutes. Blood samples for glucose, C-peptide, and insulin were drawn again at 10, 20, and 30 minutes during each 30-minute infusion period. Blood samples for plasma acetaminophen concentration were drawn at −10, 30, 60, 90, 120, 150, 180, 210, 240, 300, and 480 minutes.
On Day 2, following an overnight fast of 10 hours, a blood sample for glucose, C-peptide, and insulin was drawn at −10 minutes. Subjects received an injection of extended half-life GLP-1/GIP coagonist peptide at 0 minutes. Subjects in Cohort 2 received 8 mg of extended half-life GLP-1/GIP coagonist peptide, subjects in Cohort 3 received 4 mg of extended half-life GLP-1/GIP coagonist peptide, and subjects in Cohort 4 received 16 mg of extended half-life GLP-1/GIP coagonist peptide. At 0 minutes, a blood sample for extended half-life GLP-1/GIP coagonist peptide concentration, C-peptide, insulin, glucose, and safety laboratory tests was drawn.
At −10 minutes, subjects ingested 1000 mg acetaminophen elixir with 240 mL water. […] Glucose was infused for a total of 2.5 hours at a rate of 2, 4, 6, 8, and 12 mg/kg/min. Each level of glucose infusion was maintained for 30 minutes.

[3] = test system: gastric emptying; assay: Phase I two-part study, gastric emptying by plasma appearance of ingested acetaminophen
Procedure: as §1, §2, §3, §4, §5
At −10 minutes, subjects ingested 1000 mg acetaminophen elixir with 240 mL water. […] Glucose was infused for a total of 2.5 hours at a rate of 2, 4, 6, 8, and 12 mg/kg/min. Each level of glucose infusion was maintained for 30 minutes. […] Blood samples for plasma acetaminophen concentration were drawn at −10, 30, 60, 90, 120, 150, 180, 210, 240, 300, and 480 minutes.

[4] = 4 mg, 8 mg, 16 mg, graded glucose infusion
[5] = 4 mg, 8 mg, 16 mg, 72 hours after dosing

extended half-life GLP-1/GIP coagonist peptide: The extended half-life GLP-1/GIP coagonist peptide tested in all of the Examples was SEQ ID NO: 153 (Y[Aib]EGTFTSDYSIYLDKQAA[Aib]EFVC(PEG 40 kDa)WLLAGGPSSGAPPPSK-NH2)
AUC (AUC0-144) ([1]; 0.1 mg single SC dose, plasma): 12,349 pM·hr | Cmax ([1]; 0.1 mg single SC dose, plasma): 0.183 nM | AUC (AUC0-144) ([1]; 8 mg single SC dose, plasma): 1,382,376 pM·hr | Cmax ([1]; 8 mg single SC dose, plasma): 13 nM | mean daily fasting glucose level by day 7 ([1]; 16 mg dose): 76.5 mg/dL | time to maximum observed plasma concentration (Tmax) ([1]; 16 mg single SC dose): 112.5 h | mean daily fasting glucose level by day 7 ([1]; 24 mg dose): 72.7 mg/dL | time to maximum observed plasma concentration (Tmax) ([1]; 24 mg single SC dose): 56.0 h | mean daily fasting glucose level by day 7 ([1]; 32 mg dose): 71.7 mg/dL | time to maximum observed plasma concentration (Tmax) ([1]; 32 mg single SC dose): 80.0 h | AUC (AUC0-last) ([1]; 32 mg single SC dose, plasma): 12,582 nM·hr | Cmax ([1]; 32 mg single SC dose, plasma): 54.8 nM | absolute bioavailability ([1]; SC injection): 100% | dose proportionality of AUC and Cmax ([1]; doses ranging from 0.1 mg to 32 mg): dose proportional | dose-related trends for fasting insulin, glucose and glucagon levels ([1]; healthy subjects): No dose-related trends | apparent t1/2 ([1]; plasma, single SC dose, healthy male subjects): approximately 5 days | safety and tolerability ([1]; single SC doses 0.1 mg to 32 mg, healthy male subjects): generally safe and well tolerated; also recorded: well tolerated and not associated with adverse events, clinically important laboratory findings, or ECG findings | LS mean change in C peptide, comparison between dose groups ([2]; 4 mg vs 8 mg groups, p=0.0055): 0.01 ng/mL per mg/dL | LS mean change in insulin secretion rate, comparison between dose groups ([2]; 4 mg vs 8 mg groups, p=0.0067): 0.01 μIU/mL per mg/dL | LS mean change in insulin, comparison between dose groups ([2]; 4 mg vs 8 mg groups, p=0.0251): 0.09 μIU/mL per mg/dL | LS mean change in C peptide, comparison between dose groups ([2]; 4 mg vs 16 mg groups, p<0.0001): 0.03 ng/mL per mg/dL | LS mean change in insulin secretion rate, comparison between dose groups ([2]; 4 mg vs 16 mg groups, p<0.0001): 0.04 μIU/mL per mg/dL | LS mean change in insulin, comparison between dose groups ([2]; 4 mg vs 16 mg groups, p<0.0001): 0.17 μIU/mL per mg/dL | C-peptide level in comparison to placebo [2, 4]: dose dependent, dose proportional, increase | insulin secretion rate (ISR) in comparison to placebo [2, 4]: dose dependent, dose proportional, increase | LS mean change in insulin secretion rate at each glucose infusion rate, placebo vs treatment ([2]; 4 mg): 0.03 μIU/mL | LS mean change in C peptide at each glucose infusion rate, placebo vs treatment ([2]; 4 mg, p<0.0001): 0.02 ng/mL per mg/dL | LS mean change in insulin at each glucose infusion rate, placebo vs treatment ([2]; 4 mg, p<0.0001): 0.27 μIU/mL per mg/dL | LS mean change in C peptide, comparison between dose groups ([2]; 8 mg vs 16 mg groups, p<0.0001): 0.02 ng/mL per mg/dL | LS mean change in insulin secretion rate, comparison between dose groups ([2]; 8 mg vs 16 mg groups, p<0.0001): 0.03 μIU/mL per mg/dL | LS mean change in insulin, comparison between dose groups ([2]; 8 mg vs 16 mg groups, p=0.0316): 0.08 μIU/mL per mg/dL | LS mean change in insulin secretion rate at each glucose infusion rate, placebo vs treatment ([2]; 8 mg): 0.04 μIU/mL | LS mean change in C peptide at each glucose infusion rate, placebo vs treatment ([2]; 8 mg, p<0.0001): 0.03 ng/mL per mg/dL | LS mean change in insulin at each glucose infusion rate, placebo vs treatment ([2]; 8 mg, p<0.0001): 0.35 μIU/mL per mg/dL | increase in insulin secretion rate ([2]; 16 mg (maximum dose), vs placebo, p=0.001): approximately 44% | change in glucose levels between the 8 mg/kg/min and 12 mg/kg/min infusion rates ([2]; 16 mg and 8 mg groups): no increases in glucose levels | LS mean change in insulin secretion rate at each glucose infusion rate, placebo vs treatment ([2]; 16 mg): 0.07 μIU/mL | LS mean change in C peptide at each glucose infusion rate, placebo vs treatment ([2]; 16 mg, p<0.0001): 0.05 ng/mL per mg/dL | LS mean change in insulin at each glucose infusion rate, placebo vs treatment ([2]; 16 mg, p<0.0001): 0.43 μIU/mL per mg/dL | glucose levels compared to placebo group ([2]; all dose groups, all glucose infusion rates): lower glucose levels than the placebo group | Cmax of plasma acetaminophen [3, 5]: trend toward lower Cmax at a higher dose | Tmax of plasma acetaminophen compared to placebo [3, 5]: not significantly different from placebo | total acetaminophen absorbed (AUC0-4 hr) compared to placebo [3, 5]: not significantly different from placebo | delay in the absorption of acetaminophen ([3]; 4 mg, 8 mg, 16 mg, 72 hours after dosing, 1000 mg acetaminophen): not associated with a significant delay | effect on gastric emptying ([3]; doses that increase insulin secretion in response to a glucose infusion): does not delay gastric emptying
